Reference: patent US20130338184A1, “2-AMINO-NAPHTHYRIDINE DERIVATIVES” (priority 2011, published 2013)

Assay: Metabolic stability in human liver S9 fractions
Type: in vitro ADME
Conditions: for % Δ of % parent remaining (relative to S): relative to Pagoclone (S); for % Δ of % parent remaining (relative to racemic): relative to Pagoclone (racemic)
Protocol: Materials: Human liver S9 (20 mg/mL) were obtained from Xenotech, LLC (Lenexa, Kans.). (3-nicotinamide adenine dinucleotide phosphate, reduced form (NADPH), magnesium chloride (MgCl2), and dimethyl sulfoxide (DMSO) were purchased from Sigma-Aldrich.
Determination of Metabolic Stability: 10 mM stock solutions of test compounds were prepared in DMSO. The 10 mM stock solutions were diluted to 0.1 mM or 1.0 mM in acetonitrile (ACN). The 20 mg/mL human liver […] were diluted to 2.5 mg/mL in 0.1 M potassium phosphate buffer, pH 7.4, containing 3 mM MgCl2 and incubated with alamethicin at 10 μg/mL for 15 minutes on ice. The diluted S9 were added to wells of a 96-well deep-well polypropylene plate in triplicate. 15 μL of the 0.1 mM or 1.0 mM test compound was added to the S9 and the mixture was pre-warmed for 10 minutes. Reactions were initiated by addition of pre-warmed NADPH solution. […] The reaction mixtures were incubated at 37° C., and 50 μL aliquots were removed at 0 and 60 minutes and added to shallow-well 96-well plates which contained 50 μL of ice-cold ACN with internal standard to stop the reactions. The plates were stored at 4° C. for 20 minutes after which 100 μL of water was added to the wells of the plate before centrifugation to pellet precipitated proteins. Supernatants were transferred to another 96-well plate and analyzed for amounts of parent remaining by LC-MS/MS using an Applied Bio-systems API 4000 mass spectrometer.
Data analysis: The in vitro tu2s for test compounds were calculated from the slopes of the linear regression of % parent remaining (1n) vs incubation time relationship.
k=−[slope of linear regression of % parent remaining(ln) vs incubation time]
Data analysis was performed using Microsoft Excel Software.

[1] = human liver S9 fractions, 1 μM tested compound
[2] = human liver S9 fractions, 10 μM tested compound

| Structure (SMILES) | % Parent remaining at 1 hr [1] [%] | % Parent remaining at 1 hr [2] [%] | % Δ of % parent remaining (relative to S) (1 μM tested compound) [%] | % Δ of % parent remaining (relative to racemic) (1 μM tested compound) [%] | % Δ of % parent remaining (relative to S) (10 μM tested compound) [%] | % Δ of % parent remaining (relative to racemic) (10 μM tested compound) [%] | metabolic stability compared to pagoclone and (S)-pagoclone (human liver S9 fractions, summary in words) |
| --- | --- | --- | --- | --- | --- | --- | --- |
| CC(C)CCC(=O)CC1c2ccccc2C(=O)N1c1ccc2ccc(Cl)nc2n1 [Pagoclone (S), 2-(7-chloro-1,8-naphthyridin-2-yl)-3-(5-methyl-2-oxohexyl)isoindolin-1-one, reference compound] | 41 ± 1.0 | 23 ± 3.9 |  |  |  |  |  |
| CC(C)CCC(=O)CC1c2ccccc2C(=O)N1c1ccc2ccc(Cl)nc2n1 (racemic) [Pagoclone (racemic), 2-(7-chloro-1,8-naphthyridin-2-yl)-3-(5-methyl-2-oxohexyl)isoindolin-1-one, reference compound] | 37 ± 3.8 | 11 ± 1.2 |  |  |  |  |  |
| [2H]C([2H])(C(=O)C([2H])([2H])C([2H])([2H])C([2H])(C([2H])([2H])[2H])C([2H])([2H])[2H])C1c2ccccc2C(=O)N1c1ccc2ccc(Cl)nc2n1 (racemic) [Rac-141, (+/−)-2-(7-Chloro-1,8-naphthyridin-2-yl)-3-(5-(d3-methyl)-2-oxo-1,1,3,3,4,4,5,6,6,6-d10-hexyl)isoindolin-1-one] | 60 ± 8.4 | 37 ± 2.7 | 46 | 62 | 61 | 236 | substantially greater metabolic stability |
